Experimental data reported in patent US20250215029A1 (Recludix Pharma, Inc., priority 2022, published 2025).

Key:
[1] = target: T1, Recombinant STAT6 protein (STAT6 (W123-T658)) (Homo sapiens, UniProt P42226); test: STAT6 Fluorescence Polarization (FP) Assay; type: binding; conditions: STAT6 (W123-T658) 250 nM, probe 5-FAM-Ap[…]-NH2 2 nM, 45-minute incubation; read-out: STAT6 (FP assay IC50 class)
T1 construct: Recombinant STAT6 protein (STAT6 (W123-T658))
T1 sequence (P42226 123-658): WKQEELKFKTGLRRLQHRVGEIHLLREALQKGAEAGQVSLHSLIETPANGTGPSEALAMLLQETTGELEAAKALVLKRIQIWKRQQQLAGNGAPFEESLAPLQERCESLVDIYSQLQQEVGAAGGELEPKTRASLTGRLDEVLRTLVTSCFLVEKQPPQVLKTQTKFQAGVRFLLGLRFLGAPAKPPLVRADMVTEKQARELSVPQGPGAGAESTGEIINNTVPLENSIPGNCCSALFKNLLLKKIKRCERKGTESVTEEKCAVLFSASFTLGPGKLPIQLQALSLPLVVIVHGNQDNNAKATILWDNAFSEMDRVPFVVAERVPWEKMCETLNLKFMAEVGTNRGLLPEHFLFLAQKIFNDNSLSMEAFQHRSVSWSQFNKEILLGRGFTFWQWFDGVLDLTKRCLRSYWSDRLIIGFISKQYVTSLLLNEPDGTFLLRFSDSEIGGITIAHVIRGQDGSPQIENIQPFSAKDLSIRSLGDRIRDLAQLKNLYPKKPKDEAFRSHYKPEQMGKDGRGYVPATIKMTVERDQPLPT
How it was run: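 Competitive FP binding: recombinant STAT6 (W123-T658) at 250 nM, labeled phosphotyrosine peptide at 2 nM, compounds at 1% DMSO, 45 min at RT before reading. IC50 values were obtained from nonlinear regression of mP versus log concentration.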

[2] = target: T2, Recombinant STAT3 protein (STAT3 (G127-I722)) (Homo sapiens, UniProt P40763); test: STAT3 Fluorescence Polarization (FP) Assay; type: binding; conditions: STAT3 (G127-I722) 25 nM, probe 5-FAM-GpYLPQTV-NH2 2 nM, 45-minute incubation; read-out: STAT3 (FP assay IC50 class)
T2 construct: Recombinant STAT3 protein (STAT3 (G127-I722))
T2 sequence (P40763 127-722): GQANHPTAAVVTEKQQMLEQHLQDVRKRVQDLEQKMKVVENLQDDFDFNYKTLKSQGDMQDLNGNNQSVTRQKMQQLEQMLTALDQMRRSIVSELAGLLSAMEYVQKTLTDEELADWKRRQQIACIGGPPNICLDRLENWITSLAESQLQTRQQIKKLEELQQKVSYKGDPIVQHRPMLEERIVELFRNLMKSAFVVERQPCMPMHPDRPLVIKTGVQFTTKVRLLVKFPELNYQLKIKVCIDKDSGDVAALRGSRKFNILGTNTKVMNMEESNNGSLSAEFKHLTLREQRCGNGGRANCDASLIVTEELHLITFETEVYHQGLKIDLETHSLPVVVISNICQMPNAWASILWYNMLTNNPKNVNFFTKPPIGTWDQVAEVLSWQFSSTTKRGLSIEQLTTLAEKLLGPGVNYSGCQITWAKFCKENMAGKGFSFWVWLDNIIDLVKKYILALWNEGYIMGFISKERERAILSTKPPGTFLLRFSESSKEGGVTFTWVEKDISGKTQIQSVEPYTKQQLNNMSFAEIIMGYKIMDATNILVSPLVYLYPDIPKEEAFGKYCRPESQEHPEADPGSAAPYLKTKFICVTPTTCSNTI
How it was run: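 Displacement of a fluorescent phosphotyrosine peptide (5-FAM-GpYLPQTV-NH2, 2 nM) from 25 nM recombinant STAT3 G127-I722 was monitored by FP after 45 min at room temperature.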

SMILES: Cc1ccncc1C1CN(C(=O)[C@@H]2CC[C@@H]3C[C@@H](C)CC[C@H](NC(=O)c4cc5cc(CP(=O)(O)O)ccc5s4)C(=O)N32)C1 [Compound 655, ((2-(((3S,6S,9S,10aR)-9-methyl-3-(3-(4-methylpyridin-3-yl)azetidine-1-carbonyl)-5-oxodecahydropyrrolo [1,2-a]azocin-6-yl)carbamoyl)benzo [b]thiophen-5-yl)methyl) phosphonic acid]
- IC50 [1]: 3 to 30 µM
- IC50 [2]: 0.1 to 1 µM

SMILES: Cc1ccncc1C1CN(C(=O)[C@@H]2CC[C@@H]3C[C@H](C)CC[C@H](NC(=O)c4cc5cc(CP(=O)(O)O)ccc5s4)C(=O)N32)C1 [Compound 656, ((2-(((3S,6S,9R,10aR)-9-methyl-3-(3-(4-methylpyridin-3-yl)azetidine-1-carbonyl)-5-oxodecahydropyrrolo [1,2-a]azocin-6-yl)carbamoyl)benzo [b]thiophen-5-yl)methyl) phosphonic acid]
- IC50 [1]: 3 to 30 µM
- IC50 [2]: 0.1 to 1 µM

SMILES: Cc1cccnc1C1CN(C(=O)[C@@H]2CC[C@@H]3CCC[C@H](NC(=O)c4cc5cc(CP(=O)(O)O)ccc5s4)C(=O)N32)C1 [Compound 657, ((2-(((3S,6S,9aS)-3-(3-(3-methylpyridin-2-yl)azetidine-1-carbonyl)-5-oxooctahydro-1H-pyrrolo[1,2-a]azepin-6-yl)carbamoyl)benzo [b]thiophen-5-yl)methyl) phosphonic acid]
- IC50 [1]: 3 to 30 µM
- IC50 [2]: 1 to 10 µM

SMILES: Cc1cccnc1C1CN(C(=O)[C@@H]2CC[C@@H]3CCC[C@H](NC(=O)c4cc5cc(C(F)(F)P(=O)(O)O)ccc5s4)C(=O)N32)C1 [Compound 658, (difluoro(2-(((3S,6S,9aS)-3-(3-(3-methylpyridin-2-yl)azetidine-1-carbonyl)-5-oxooctahydro-1H-pyrrolo[1,2-a]azepin-6-yl)carbamoyl)benzo [b]thiophen-5-yl)methyl) phosphonic acid]
- IC50 [1]: 0.3 to 3 µM
- IC50 [2]: 0.1 to 1 µM

SMILES: N#Cc1cncc(C2CN(C(=O)[C@@H]3CC[C@@H]4CCC[C@H](NC(=O)c5cc6cc(CP(=O)(O)O)ccc6s5)C(=O)N43)C2)c1 [Compound 659, ((2-(((3S,6S,9aS)-3-(3-(5-cyanopyridin-3-yl)azetidine-1-carbonyl)-5-oxooctahydro-1H-pyrrolo[1,2-a]azepin-6-yl)carbamoyl)benzo [b]thiophen-5-yl)methyl) phosphonic acid]
- IC50 [1]: 3 to 30 µM
- IC50 [2]: 1 to 10 µM

SMILES: N#Cc1ccnc(C2CN(C(=O)[C@@H]3CC[C@@H]4CCC[C@H](NC(=O)c5cc6cc(CP(=O)(O)O)ccc6s5)C(=O)N43)C2)n1 [Compound 660, ((2-(((3S,6S,9aS)-3-(3-(4-cyanopyrimidin-2-yl)azetidine-1-carbonyl)-5-oxooctahydro-1H-pyrrolo[1,2-a]azepin-6-yl)carbamoyl)benzo [b]thiophen-5-yl)methyl) phosphonic acid]
- IC50 [1]: 3 to 30 µM
- IC50 [2]: 1 to 10 µM

SMILES: Cc1ncncc1C1CN(C(=O)[C@@H]2CC[C@@H]3CCC[C@H](NC(=O)c4cc5cc(CP(=O)(O)O)ccc5s4)C(=O)N32)C1 [Compound 661, ((2-(((3S,6S,9aS)-3-(3-(4-methylpyrimidin-5-yl)azetidine-1-carbonyl)-5-oxooctahydro-1H-pyrrolo[1,2-a]azepin-6-yl)carbamoyl)benzo [b]thiophen-5-yl)methyl) phosphonic acid]
- IC50 [1]: 3 to 30 µM
- IC50 [2]: 1 to 10 µM

SMILES: Cn1c(C2CN(C(=O)[C@@H]3CC[C@@H]4CCCC[C@H](NC(=O)c5cc6cc(CP(=O)(O)O)ccc6s5)C(=O)N43)C2)nc2ccccc21 [Compound 662, ((2-(((3S,6S,10aS)-3-(3-(1-methyl-1H-benzo[d]imidazol-2-yl)azetidine-1-carbonyl)-5-oxodecahydropyrrolo [1,2-a]azocin-6-yl)carbamoyl)benzo [b]thiophen-5-yl)methyl) phosphonic acid]
- IC50 [1]: 3 to 30 µM
- IC50 [2]: 1 to 10 µM

SMILES: O=C(N[C@H]1CCCC[C@H]2CC[C@@H](C(=O)N3CC(c4cccnc4)C3)N2C1=O)c1cc2cc(CP(=O)(O)O)ccc2s1 [Compound 663, ((2-(((3S,6S,10aS)-5-oxo-3-(3-(pyridin-3-yl)azetidine-1-carbonyl)decahydropyrrolo[1,2-a]azocin-6-yl)carbamoyl)benzo [b]thiophen-5-yl)methyl) phosphonic acid]
- IC50 [1]: 3 to 30 µM
- IC50 [2]: 0.1 to 1 µM

SMILES: O=C(N[C@H]1CCC[C@H]2CC[C@@H](C(=O)N3CC(c4cnccc4F)C3)N2C1=O)c1cc2cc(C(F)P(=O)(O)O)ccc2s1 (stereo partly drawn) [Compound 664, (fluoro(2-(((3S,6S,9aS)-3-(3-(4-fluoropyridin-3-yl)azetidine-1-carbonyl)-5-oxooctahydro-1H-pyrrolo[1,2-a]azepin-6-yl)carbamoyl)benzo [b]thiophen-5-yl)methyl) phosphonic acid]
- IC50 [1]: 0.3 to 3 µM
- IC50 [2]: < 0.1 µM

SMILES: O=C(N[C@H]1CCC[C@H]2CC[C@@H](C(=O)N3CC(c4cnccc4N4CC[C@H](F)C4)C3)N2C1=O)c1cc2cc(CP(=O)(O)O)ccc2s1 [Compound 666, ((2-(((3S,6S,9aS)-3-(3-(4-((S)-3-fluoropyrrolidin-1-yl)pyridin-3-yl)azetidine-1-carbonyl)-5-oxooctahydro-1H-pyrrolo[1,2-a]azepin-6-yl)carbamoyl)benzo [b]thiophen-5-yl)methyl) phosphonic acid]
- IC50 [1]: 3 to 30 µM
- IC50 [2]: < 0.1 µM

SMILES: O=C(N[C@H]1CCC[C@H]2CC[C@@H](C(=O)N3CC(c4cnccc4N4CC[C@@H]4C(F)F)C3)N2C1=O)c1cc2cc(CP(=O)(O)O)ccc2s1 [Compound 668, ((2-(((3S,6S,9aS)-3-(3-(4-((R)-2-(difluoromethyl)azetidin-1-yl)pyridin-3-yl)azetidine-1-carbonyl)-5-oxooctahydro-1H-pyrrolo[1,2-a]azepin-6-yl)carbamoyl)benzo [b]thiophen-5-yl)methyl) phosphonic acid]
- IC50 [1]: 3 to 30 µM
- IC50 [2]: < 0.1 µM

SMILES: O=C(N[C@H]1CCC[C@H]2CC[C@@H](C(=O)N3CC(c4ccccc4N4CCOCC4)C3)N2C1=O)c1cc2cc(C(F)P(=O)(O)O)ccc2s1 (stereo partly drawn) [Compound 670, (fluoro(2-(((3S,6S,9aS)-3-(3-(2-morpholinophenyl)azetidine-1-carbonyl)-5-oxooctahydro-1H-pyrrolo[1,2-a]azepin-6-yl)carbamoyl)benzo [b]thiophen-5-yl)methyl) phosphonic acid]
- IC50 [1]: 3 to 30 µM
- IC50 [2]: 0.1 to 1 µM

SMILES: O=C(N[C@H]1CCC[C@H]2CC[C@@H](C(=O)N3CC(c4cnccc4N4C5COCC4C5)C3)N2C1=O)c1cc2cc(C(F)P(=O)(O)O)ccc2s1 (stereo partly drawn) [Compound 671, ((2-(((3S,6S,9aS)-3-(3-(4-(3-oxa-6-azabicyclo[3.1.1]heptan-6-yl)pyridin-3-yl)azetidine-1-carbonyl)-5-oxooctahydro-1H-pyrrolo[1,2-a]azepin-6-yl)carbamoyl)benzo [b]thiophen-5-yl)fluoromethyl) phosphonic acid]
- IC50 [1]: 0.3 to 3 µM
- IC50 [2]: < 0.1 µM

SMILES: O=C(N[C@H]1CCC[C@H]2CC[C@@H](C(=O)N3CC(C4=CCCOC4)C3)N2C1=O)c1cc2cc(CP(=O)(O)O)ccc2s1 [Compound 672, ((2-(((3S,6S,9aS)-3-(3-(5,6-dihydro-2H-pyran-3-yl)azetidine-1-carbonyl)-5-oxooctahydro-1H-pyrrolo[1,2-a]azepin-6-yl)carbamoyl)benzo [b]thiophen-5-yl)methyl) phosphonic acid]
- IC50 [1]: 3 to 30 µM
- IC50 [2]: 1 to 10 µM

SMILES: Cc1nnc([C@H]2[C@H](c3ccccc3)CN2C(=O)[C@@H]2CC[C@@H]3CCC[C@H](NC(=O)c4cc5cc(C(F)P(=O)(O)O)ccc5s4)C(=O)N32)o1 (stereo partly drawn) [Compound 673]
- IC50 [1]: 3 to 30 µM
- IC50 [2]: 0.1 to 1 µM

SMILES: COC[C@@H]1CCN1c1ncncc1C1CN(C(=O)[C@@H]2CC[C@@H]3CCC[C@H](NC(=O)c4cc5cc(CP(=O)(O)O)ccc5s4)C(=O)N32)C1 [Compound 675, ((2-(((3S,6S,9aS)-3-(3-(4-((S)-2-(methoxymethyl)azetidin-1-yl)pyrimidin-5-yl)azetidine-1-carbonyl)-5-oxooctahydro-1H-pyrrolo[1,2-a]azepin-6-yl)carbamoyl)benzo [b]thiophen-5-yl)methyl) phosphonic acid]
- IC50 [1]: 3 to 30 µM
- IC50 [2]: < 0.1 µM

SMILES: C[C@H]1C[C@H]2CC[C@@H](C(=O)N3CC(c4cncnc4N4CCC4)C3)N2C(=O)[C@@H](NC(=O)c2cc3cc(CP(=O)(O)O)ccc3s2)C1 [Compound 678, ((2-(((3S,6S,8R,9aR)-3-(3-(4-(azetidin-1-yl)pyrimidin-5-yl)azetidine-1-carbonyl)-8-methyl-5-oxooctahydro-1H-pyrrolo[1,2-a]azepin-6-yl)carbamoyl)benzo [b]thiophen-5-yl)methyl) phosphonic acid]
- IC50 [1]: 3 to 30 µM
- IC50 [2]: < 0.1 µM
